What all share (test): growth of human tumour cells (NCI), 48 h
Experiment [1] concerns A498 renal.
For experiment [2], the system named is IGROV1 ovarian.
Experiment [3] concerns SR leukemia.
For experiment [4], the system named is 786-0 renal.
Experiment [5] concerns KM12 colon.
Experiment [6] deals with SF-268 CNS.
The subject of experiment [7] is LOX IMVI melanoma.
Experiment [8] concerns SF-539 CNS.
For experiment [9], the system named is NCI-H522 lung.
The test system of experiment [10] is CCRF-CEM leukemia.

For nine compounds, GI50 and TGI results are on record in PubChem BioAssay (NCI).

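Interpolation was linear, between the two tested concentrations surrounding the appropriate level; five concentrations were tested over 48 hours in 96-well plates. GI50 marks 50% less growth. TGI: concentration producing complete growth inhibition.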

Regarding `O=[N+]([O-])c1ccc(Sc2ncccn2)c([N+](=O)[O-])c1`, the GI50 was 7.6 µM in experiment [1]; 1.27 µM in experiment [2]; 1.2 µM in [3]; 4.59 µM in experiment [4]; 4.36 µM in experiment [5]; 5.08 µM in experiment [6]. In addition, the GI50 in experiment [7] was 4.3 µM; in [8] it was 2.63 µM; in experiment [9] it was 1.64 µM; in [10], 2.04 µM. The TGI in experiment [1] was 20.7 µM; in [2], 13.6 µM; in [3] it was 17.9 µM; in experiment [4], 16.1 µM; in [5], 15.9 µM; in experiment [6], 19.6 µM. Further, the TGI is 15 µM in experiment [7], 8.82 µM in [8], 3.11 µM in experiment [9] and 5.5 µM in [10].

In the case of `CCOC(=O)C1C=C2O[C@@H]3OC4(CCCCC4)O[C@@H]3C2[C@H]2C(=O)C=CC(=O)[C@@]12C(=O)OC` (stereo partly drawn), the TGI in experiment [1] was determined as 32.6 µM; in experiment [2] it was 27.6 µM; in [3], 6.71 µM; in [4] it was 18.7 µM; in experiment [5], 27.8 µM; in experiment [6], 29.6 µM. For the same compound, the TGI in experiment [7] is 32.9 µM; in [8], 6.16 µM; in [9] it was 14.5 µM; in experiment [10] it was 9.94 µM.

For `CCCCCCCCCCCCCCCCCCNC(=O)[C@H]1CSC(c2ccc(OC)c(F)c2)N1` (stereo partly drawn), the TGI is above 38.3 µM in experiment [1]; 29.1 µM in [2]; 2.88 µM in experiment [3]; above 46.2 µM in experiment [4]; 7.9 µM in experiment [5]; 4.14 µM in experiment [6]. Also, the TGI in experiment [7] is 15.8 µM; in experiment [8], above 37.6 µM; in [9] it was above 51.6 µM; in [10] it was 8.13 µM. Also, the GI50 in experiment [2] was 6.65 µM; in experiment [3] it was 0.641 µM; in [4] it was 7.18 µM; in experiment [5], 2.34 µM; in experiment [6] it was 1.73 µM; in [7], 2.68 µM. Moreover, the GI50 was 4.67 µM in experiment [8], above 29.4 µM in [9] and 0.731 µM in experiment [10].

For the compound `COC1C=C(Nc2cccc(Cl)c2)C(=O)C1` (stereo not drawn), the TGI is 32.2 µM in experiment [1]; above 100 µM in experiment [2]; above 100 µM in experiment [3]; above 100 µM in experiment [4]; above 100 µM in experiment [5]; above 100 µM in [6]. Also, the TGI in experiment [7], in [8], in experiment [9] and in experiment [10] was above 100 µM in each case.

In the case of `COc1ccc(N(C)c2nc(C)nc3ccccc23)cc1`, the GI50 in experiment [1], in [2], in experiment [3], in experiment [4], in experiment [5] and in experiment [6] was below 0.01 µM throughout. The GI50 in experiment [7], in experiment [8], in experiment [9] and in experiment [10] was below 0.01 µM each time. The TGI in experiment [1] is below 0.01 µM; in experiment [2], above 100 µM; in experiment [3], above 36.5 µM; in experiment [4], 55.7 µM; in experiment [6] it was above 34 µM; in experiment [7], above 51.4 µM. For the same compound, the TGI is above 100 µM in experiment [8], below 0.01 µM in experiment [9] and above 100 µM in experiment [10].

`C[C@H]1[C@H](OC(=O)CCC(=O)O)O[C@@H]2O[C@]3(C)CC[C@H]4[C@H](C)CC[C@@H]1[C@@]24OO3`: the GI50 in experiment [1] was 5.93 µM; in [2], 1.17 µM; in experiment [3] it was 0.238 µM; in [4] it was 1.12 µM; in experiment [5], 0.168 µM; in [6], 1.04 µM. Moreover, the GI50 in experiment [7] is 0.421 µM; in experiment [8], 0.667 µM; in [9], 0.365 µM; in experiment [10] it was 0.452 µM. In addition, the TGI was determined as 33.8 µM in experiment [1]; 5.91 µM in experiment [2]; 4.27 µM in experiment [3]; 25.8 µM in experiment [4]; 12 µM in experiment [5]; 43.2 µM in experiment [6]. Further, the TGI in [7] was found to be 4.79 µM; in experiment [8], 14.5 µM; in experiment [9] it was 5.43 µM; in experiment [10], 19.7 µM.

Consider `CC1(C)CC(=O)C2=C(C1)NC(SSC1=C(C#N)C(c3ccccc3)C3=C(CC(C)(C)CC3=O)N1)=C(C#N)C2c1ccccc1` (stereo not drawn), for which the GI50 in experiment [1] is 30.4 µg/mL; in experiment [2], 28.3 µg/mL; in [3], 26.5 µg/mL; in [4] it was 28.4 µg/mL; in [5], 26.2 µg/mL; in experiment [6], 28 µg/mL. Also, the GI50 was 27.2 µg/mL in [7], 26.9 µg/mL in experiment [8], 26.1 µg/mL in experiment [9] and 24.6 µg/mL in [10]. Besides, the TGI in experiment [1] was found to be 59.8 µg/mL; in [2], 50.1 µg/mL; in experiment [3] it was 103 µg/mL; in experiment [4], 49.5 µg/mL; in experiment [5] it was 49.7 µg/mL; in [6], 53.7 µg/mL. The TGI in [7] was 49.3 µg/mL; in experiment [8], 51 µg/mL; in experiment [9], 47.7 µg/mL; in experiment [10], above 150 µg/mL.

On to `O=C(Nc1n[nH]c2nc(-c3ccco3)c(Br)cc12)C1CC1`, for which the GI50 is above 12.5 µM in experiment [1]; above 25 µM in experiment [2]; above 25 µM in experiment [3]; above 25 µM in [4]; above 25 µM in experiment [5]; above 25 µM in experiment [6]. The GI50 in experiment [7] was above 21.7 µM; in [8], above 25 µM; in experiment [9], above 25 µM; in [10], above 21.7 µM. The TGI in [1], in experiment [2], in experiment [3], in experiment [4], in experiment [5] and in [6] was above 25 µM in each case. In addition, the TGI in experiment [7], in [8], in experiment [9] and in experiment [10] was above 25 µM in each case.

In the case of `COc1c(OC(C)=O)ccc(/C=C2\N=C(C)OC2=O)c1[N+](=O)[O-]`, the TGI in experiment [1], in experiment [2], in [3], in [4], in experiment [5] and in experiment [6] was above 100 µM in each case. Moreover, the TGI in experiment [7], in experiment [8], in [9] and in experiment [10] was above 100 µM throughout.
